The test system of data set [1] is HCV genotype 2a (Huh7.5-J6/JFH1). Nature of the data set: HCV particle production: infectivity of supernatant on naive Huh7.5 cells by real-time RT-PCR. It is filed as cell-based, hepatitis C virus. The note with it: for effect on HCV particle production: 10 μM; for EC50: Hepatitis C virus, read-out: EC50 on HCV particle production. On the technique in general: Real-time PCR tracks product formation cycle by cycle.
Experimental: A922500, a commercially available DGAT-1-specific inhibitor was used as a positive control [10]. […] Therefore, we decided to examine effects of these twelve DGAT inhibitors on HCV particle production as well as RNA genome replication in parallel. For this purpose, we transfected Huh7.5 cells with in vitro-transcribed genotype 2a HCV RNAs (Huh7.5-J6/JFH1) [16] and treated them with each DGAT inhibitor for 6 and 72 h at 10 μM. HCV genome replication as well as host GAPDH RNA levels was quantitated by a real-time RT-PCR analysis. For assessment of HCV particle production, we harvested and filtered the supernatant from Huh7.5-J6/JFH1 cells treated with DGAT inhibitors and incubated the supernatant with naïve huh7.5 cells for 72 h. Then, infectivity was measured by a real-time RT-PCR analysis.
Huh7.5-J6/JFH-1 cells were seeded into 6-well plates at a density of 3 × 10^5 cells per well with DMEM containing 10% FBS. […] Total RNAs were extracted from treated cells and virus-containing media were harvested at each time point. Naïve Huh7.5 cells were infected with these virus-containing media after concentration with centricons.

The nature of data set [2]: MTT-based cell viability assay (EZ-CYTOX). The note with it: human. Here is the method: To order to study impacts of DGAT inhibitors on HCV genome replication independently of the particle production, we decided to examine effects of these twelve DGAT inhibitors on the levels of viral RNA genome and cell viability in parallel. […] Then, we treated them with an increasing concentration of each DGAT inhibitor. Then, luciferase and MTT-based cell viability assays were performed to determine EC50 and CC50 (cytotoxic concentration required to kill 50% of treated cells) values, respectively.
Cell viability was measured with EZ-CYTOX (10% tetrazolium salt; Dogen, Gyeonggi-do, Korea) as described previously. Anti-HCV replication analysis using a luciferase assay was conducted as previously described.

Data set [3] relates to HCV NS3 (Huh7.5-J6/JFH1, genotype 2a). As to the kind of experiment: western blot of HCV NS3 protein in Huh7.5-J6/JFH1 cells. As for the experimental part:
(§1) Due to the tight coupling of viral genome replication to its protein expression, inhibition of viral RNA genome replication leads to a subsequent reduction of viral protein expression.
(§2) (A) Dose-dependent western blot analysis of Huh7.5-J6/JFH1 cells treated with increasing concentrations of 10j for 72 h by measuring protein expression levels of HCV NS3 relative to the β-actin. Daclatasvir, an NS5A inhibitor was used as a positive control. (B) Time-dependent western blot analysis of J6/JFH1 RNA-transfected Huh7.5 cells treated with 8 μM of 10j for increasing periods of time analyzed by measuring protein expression levels of HCV NS3 relative to the β-actin. (C,D) Same experiments were performed as in (A,B) to study effects of 10j on the expression levels of the NS5A protein of Huh7.5-Bart79I cells in a dose- as well as time-dependent manners.
(§3) Western blot analysis of Huh7.5-J6/JFH1 or Bart79I cells treated with 10j was conducted as previously described. Relative amounts of HNF4α proteins were quantified by using an HNF4α mouse monoclonal antibody (M04), clone 4E2 (Abnova) with the dilution of 1:1000.

Data set [4] concerns HCV NS5A (Huh7.5-Bart79I, genotype 1b). As to the kind of experiment: western blot of HCV NS5A protein in Huh7.5-Bart79I cells. In kind it is cell-based, hepatitis C virus. As for the experimental part: as §1, §2, §3
For data set [5], the system named is Huh7.5 cells. As to the kind of experiment: visualization of intracellular LD by BODIPY in Huh7.5 cells. In kind it is cell-based. The note with it: 8 μM, 72 h. Here is the method:
Huh7.5 cells were incubated in a 24-well plate on top of coverslip in the presence of either DMSO, 8 μM of 10j, or 20 μM of A922500 for 72 h. Then, Huh7.5 cells were fixed by using 4% paraformaldehyde for 15 min and stained with 0.001% BODIPY 493/503 D3922 (Invitrogen, Carlsbad, CA, USA) for 10 min. The coverslips were mounted onto slides using Prolong Gold anti-fade reagent with DAPI (Invitrogen, Carlsbad, CA, USA) Fluorescence were examined and captured by Nikon confocal laser scanning microscopic system. LD content was quantified using the ImageJ program.

The test system of data set [6] is Huh7.5-J6/JFH1 cells. Nature of the data set: FACS analysis of LD-positive (BODIPY) J6/JFH1 cells. It is filed as cell-based. The note with it: 8 μM, 72 h, with BODIPY; DMSO 78.2%. Here is the method:
Huh7.5-J6/JFH1 cells were plated onto a 10 cc plate (Corning) and supplemented with either DMSO or 8 μM of 10j for 72 h. Then, Huh7.5-J6/JFH1 cells were fixed by using 4% paraformaldehyde for 10 min and permeabilized using 0.1% saponin in PBS for 20 min. Huh7.5-J6/JFH1 cells were stained with 0.001% BODIPY 493/503 D3922 (Invitrogen) in saponin for 1 h at 4 °C. The FACSAriaIII (BD Biosciences, Franklin Lakes, NJ, USA) was used for the flow cytometric analysis as previously described.
(In general: In flow cytometry, cells or beads pass a laser one at a time.)

Data set [7] deals with HCVcc particles (JFH1-NS5A-GFP). Nature of the data set: HCVcc infectivity and time-of-addition assay. The note with it: pre-treatment (−2 h), co-treatment (0 h), post-treatment (+2 h); dose-dependent. It is filed as cell-based, hepatitis C virus.
Experimental: In order to test the effects of 10j on the early viral functions, such as the viral entry and uncoating of the viral genome, we performed the “time of addition” experiment by using the cell culture-derived infectious HCVcc particles (JFH1-NS5A-GFP) (Figure 4A).
The time-of-addition assay was conducted as previously reported [38]. Briefly, naïve Huh-7.5 cells were plated in 384-well plates and incubated with serially diluted 10j at specific time points during virus infection: pre-infection treatment; co-infection treatment; post-infection treatment. Afterwards, infected cells were incubated at 37 °C for 3 days in the presence of inhibitors. At 72 h post-infection, HCV infection rates and cytotoxicity were determined by the number of GFP positive cells and Hoechst 33,342 positive cell nuclei, a marker for cell viability, respectively, using fully automated confocal microscopy (Opera, PerkinElmer, Hamburg, Germany). The acquired images were analyzed by in-house developed software. Percentages of HCV inhibition were calculated using 1% DMSO-treated cells and 10 μM of sofosbuvir treated cells and were set to 0% and 100% inhibition, respectively. Experiments were conducted at least two-times independently and in triplicates.
Data set [8] deals with Huh7.5-J6/JFH1 cells. As to the kind of experiment: immunofluorescence of NS3 and LD (BODIPY) in Huh7.5-J6/JFH1 cells. The note with it: 72 h. It is filed as cell-based, hepatitis C virus. As for the experimental part: Based on previous results, we noticed that EC50 values required for inhibition of the HCV genome replication by 10j were around 1–2 μM ranges (Figure 2 and Table 3). However, IC50 value required for inhibition of the enzymatic DGAT activities in vitro by 10j was reported to be higher than 5 μM (Table 2 and Figure 6E). Based on these observations, we hypothesized that inhibition of DGATs by 10j may not play a direct role in suppression of the viral genome replication. To test this hypothesis, we decided to study effects of 10j on DGAT and the viral genome replication in a simultaneous manner. […] Then, the viral NS3 protein and LDs were visualized by using an anti-NS3 antibody and BODIPY, respectively. […] Significant reduction of LD was only seen after treatment of 10j higher than 5 μM. In order to confirm this observation, we decided to utilize another HCV-positive cell—JFH1-NS5A-GFP cells—which were infected with infectious HCV genotype 2a particles with a visually tractable NS5A due to the presence of in-frame-fused GFP protein with NS5A. TGs of these cells were stained with ORO for visualization in parallel. […] In accordance with the previous result, reduction of the NS5A-GFP protein preceded decline of TG biosynthesis (Figure 7D).
Immunofluorescence analysis of Huh7.5-J6/JFH1 or Huh7.5-JFH1-5A-GFP cells in the presence of 10j was conducted as previously described. Fluorescence were examined and captured by Nikon confocal laser scanning microscopic system. LD content was quantified using the ImageJ program.

For data set [9], the system named is HCV IRES. Nature of the data set: HCV IRES-dependent translation, dual luciferase reporter in Huh7.5 cells. The note with it: up to 10 μM. In kind it is cell-based, hepatitis C virus. As for the experimental part:
A dual luciferase reporter plasmid, which expresses firefly and renila luciferases through cap and HCV IRES-dependent translation, was transfected into Huh7.5 cells in the presence of 10j. Dual luciferase assay was conducted as previously described.

Data set [10] relates to recombinant DGAT-2. Set-up: method as in PMID 23242135. The note with it: cited from earlier work.
On the set-up of data set [11]: method as in PMID 23141914. The note with it: cited from earlier work.

The source of these data is paper PMC6222871, “Suppression of Hepatitis C Virus Genome Replication and Particle Production by a Novel Diacylglycerol Acyltransferases Inhibitor” (Molecules : A Journal of Synthetic Chemistry and Natural …, 2018).

Where two headings read alike, the source gives them in different places.

For orientation: CC50 means the concentration at which the toxic effect on the cells reaches its halfway point. In general, IC50 refers to the concentration that inhibits the measured activity by half.

On to `O=C(NCc1ccco1)c1ccc2[nH]c(COc3ccc(C45CC6CC(CC(C6)C4)C5)cc3)nc2c1` [10j, 2-{[4-(adamant-1yl)phenoxy]methyl)-N-(furan-2-ylmethyl)-1H-benzo[d]imidazole-5-carboxamide], for which the “effect on HCV particle production” value in data set [1] (6 h (Figure 1B)) is “able to block HCV particle production”; in [1] (72 h (Figure 1D)), “able to block both viral RNA genome replication and particle production”. Also, the EC50 came to 1000 nM in [1] (Huh7.5, 3 h); 1700 nM in [1] (Huh7.5, 6 h); 400 nM in data set [1] (Huh7.5, 12 h); 400 nM in data set [1] (Huh7.5, 24 h); 700 nM in data set [1] (Huh7.5, 48 h); 200 nM in data set [1] (Huh7.5, 72 h). Further, the EC50 is 3.6 µM in data set [3] (Hepatitis C virus, GETYPE2A, 72 h, read-out: concentration required for reducing 50% of HCV protein expression (EC50)) and 4.1 µM in data set [4] (Hepatitis C virus, NS5A, read-out: concentration required for reducing 50% of HCV protein expression (EC50)). Further, the CC50 in data set [2] came to 38.9 µM. Besides, the “time required for reducing 50% of HCV protein expression (T1/2)” value in [3] (genotype 2a, 10 μM of 10j, 8 μM (figure legend)) is recorded as 37.8 h; in [4] (10 μM of 10j, 8 μM (figure legend)) it was 37.4 h. The “reduction in the level of LDs (BODIPY)” value in data set [5] is reported as 49%. For the same compound, the “relative number of LD-positive J6/JFH1 cells” value in data set [6] came out at 38.6%. Further, the “infection of Huh7.5 cells with HCVcc particles” value in data set [7] is given as “all abrogated”. The “concentration at which the viral NS3 protein started to disappear” value in data set [8] turned out to be 1 µM. Moreover, the “concentration for significant reduction of LD” value in [8] is “higher than 5 μM”. Further, the “LD levels (BODIPY)” value in data set [8] (up to 2 μM) is listed as “stayed unaltered”. The “HCV IRES-dependent translation” value in data set [9] is on record as “remained unaltered”. The IC50 in [10] is 17.3 µM. Further, the fat tissues result in [11] (mice fed with high-fat diet, versus control mice) was “significant decrease”. In addition, the high-density lipoprotein-cholesterol entry in data set [11] (mice) is “significant increase”. Further, the “total TG, total cholesterol and low-density lipoprotein cholesterol in the blood” value in data set [11] (mice) is “decreased levels”.
